# What was measured:
# [1] = molecular target: T1, MreB from C. pneumoniae (chlamydial MreB) (Chlamydia pneumoniae, UniProt A0ABN3YSA6); details: 5 µM MreB, 200 µM ATP; polymerizing (5 mM MgCl2, pH 7) and monomeric (no MgCl2, pH 8) conditions
# T1 sequence (A0ABN3YSA6 2-366): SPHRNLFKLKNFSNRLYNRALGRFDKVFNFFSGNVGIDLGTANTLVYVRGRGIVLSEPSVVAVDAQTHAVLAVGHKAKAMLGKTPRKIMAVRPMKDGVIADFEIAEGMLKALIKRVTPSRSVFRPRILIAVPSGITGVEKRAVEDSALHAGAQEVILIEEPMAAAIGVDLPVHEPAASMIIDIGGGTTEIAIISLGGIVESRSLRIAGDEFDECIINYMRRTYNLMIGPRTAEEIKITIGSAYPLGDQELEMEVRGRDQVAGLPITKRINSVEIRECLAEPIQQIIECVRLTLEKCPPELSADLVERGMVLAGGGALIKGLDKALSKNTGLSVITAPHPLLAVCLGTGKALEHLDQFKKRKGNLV
# [2] = molecular target: T1, MreB from C. pneumoniae (chlamydial MreB); assay: light scattering polymerization assay; format: biochemical; design: pET-21b, EcoRI/XhoI, C-terminal His6 tag kept; expressed in E. coli BL21(DE3); Ni-NTA purified; details: standard polymerization conditions (5 µM MreB, 5 mM MgCl2, pH 7, 20 °C)
SMILES,"phosphate release, molybdate-malachite green assay [1]",light scattering polymerization assay [2]
Nc1ncnc2c1ncn2[C@@H]1O[C@H](COP(=O)(O)OP(=O)(O)OP(=O)(O)O)[C@@H](O)[C@H]1O [ATP],The C345A mutant and wild-type MreB proteins hydrolyzed ATP without marked differences,–
Nc1nc2c(ncn2[C@@H]2O[C@H](COP(=O)(O)OP(=O)(O)OP(=O)(O)O)[C@@H](O)[C@H]2O)c(=O)[nH]1 [GTP],–,"In the presence of GTP, the kinetics and extent of wild-type MreB polymerization was impaired"
